Measured values published in PubChem BioAssay (NCI).
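Exposure lasted 48 hours, with cells grown in 96-well plates and compounds tested at five concentrations. GI50 is the concentration that inhibits growth by half. Definition used: TGI = concentration required for complete inhibition of growth.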

Legend:
Assay in all cases: NCI-60 cell line screen, 48 h
SN12C renal = test system: SN12C renal
786-0 renal = test system: 786-0 renal
HCT-116 colon = test system: HCT-116 colon
U251 CNS = test system: U251 CNS
SF-268 CNS = test system: SF-268 CNS
EKVX NSCLC = test system: EKVX NSCLC
COLO 205 colon = test system: COLO 205 colon
A498 renal = test system: A498 renal
K-562 leukemia = test system: K-562 leukemia
HOP-92 NSCLC = test system: HOP-92 NSCLC

Structure (SMILES) | TGI (SN12C renal) | TGI (786-0 renal) | TGI (HCT-116 colon) | TGI (U251 CNS) | TGI (SF-268 CNS) | TGI (EKVX NSCLC) | TGI (COLO 205 colon) | TGI (A498 renal) | TGI (K-562 leukemia) | GI50 (786-0 renal) | GI50 (HCT-116 colon) | GI50 (U251 CNS) | GI50 (SF-268 CNS) | GI50 (EKVX NSCLC) | GI50 (HOP-92 NSCLC) | TGI (HOP-92 NSCLC) | GI50 (COLO 205 colon) | GI50 (A498 renal) | GI50 (K-562 leukemia) | GI50 (SN12C renal)
C[Si](C)(C)[C@@]1([Se]c2ccccc2)CC[C@@H]1C(=O)c1ccccc1 | > 100 µM | > 100 µM | > 100 µM | > 100 µM | > 100 µM | > 100 µM | > 100 µM | > 100 µM | > 100 µM | – | – | – | – | – | – | – | – | – | – | –
NC(=O)c1ccc(-c2c3ccccc3cc3c2ccc2ccccc23)cc1 | – | 14.8 µM | 10.8 µM | 19 µM | 18.1 µM | > 100 µM | 36.5 µM | 24 µM | > 100 µM | 3.64 µM | 2.36 µM | 3.61 µM | 2.81 µM | 9.35 µM | 6.39 µM | 25.8 µM | 3.82 µM | 3.71 µM | 1.5 µM | –
c1ccc(CN(Cc2ccccn2)Cn2cccn2)nc1 | > 100 µM | > 100 µM | 63.7 µM | > 100 µM | > 100 µM | > 100 µM | > 100 µM | > 100 µM | > 100 µM | – | – | – | – | – | – | > 100 µM | – | – | – | –
COc1cc(C(N)=O)c(OC)c(OC)c1OC | > 100 µM | > 100 µM | > 100 µM | > 100 µM | > 100 µM | > 100 µM | > 100 µM | > 100 µM | > 100 µM | – | – | – | – | – | – | > 100 µM | – | – | – | –
OCC1CC2CC1C1(C2)OCCO1 (stereo not given) | > 100 µM | > 100 µM | > 100 µM | > 100 µM | > 100 µM | > 100 µM | > 100 µM | > 100 µM | > 100 µM | – | – | – | – | – | – | > 100 µM | – | – | – | –
O=C(N/N=C\c1cc(Cl)ccc1O)N/N=C/c1cc(Cl)ccc1O | > 100 µM | > 100 µM | > 100 µM | > 100 µM | > 100 µM | > 100 µM | > 100 µM | > 100 µM | > 100 µM | > 100 µM | 0.565 µM | 0.997 µM | 9.74 µM | 7.83 µM | 0.99 µM | 9.48 µM | 4.92 µM | > 100 µM | 0.572 µM | > 100 µM
N#CC(/C(=N\NC(N)=S)C(=O)NC1C2CC3CC(C2)CC1C3)c1ccc(Cl)cc1 (stereo not given) | > 100 µM | > 100 µM | > 100 µM | > 100 µM | > 100 µM | > 100 µM | > 100 µM | > 100 µM | > 100 µM | – | – | – | – | – | – | > 100 µM | – | – | – | –
CC1=CC(=O)c2[nH]c3ccccc3c2C1=O | 8.17 µM | 7.71 µM | 7.93 µM | > 25 µM | 7.89 µM | 8.48 µM | 7.55 µM | – | 14 µM | 4.27 µM | 4.44 µM | 15.4 µM | 4.36 µM | 4.04 µM | 3.98 µM | 7.36 µM | 4.12 µM | – | 5.56 µM | 4.59 µM
O=C1CCCc2c(O)ccc(O)c21 | > 100 µM | > 100 µM | > 100 µM | > 100 µM | > 100 µM | > 100 µM | > 100 µM | > 100 µM | > 100 µM | – | – | – | – | – | – | – | – | – | – | –
Nc1nc(Cl)cc(NCCCCCCCCCCNc2cc(Cl)nc(N)n2)n1 | > 100 µM | 91.5 µM | > 100 µM | > 100 µM | > 100 µM | > 100 µM | > 100 µM | – | > 100 µM | – | – | – | – | – | – | > 100 µM | – | – | – | –
NC(=O)Cn1c(=O)[nH]c(=O)c2[nH]cnc21 | > 100 µM | > 100 µM | > 100 µM | > 100 µM | > 100 µM | > 100 µM | > 100 µM | > 100 µM | > 100 µM | – | – | – | – | – | – | – | – | – | – | –
OCC(O)C(OC1OC(CO)C(O)C(O)C1O)c1nn(-c2ccc(F)cc2)c2nc3cc(Cl)c(Cl)cc3cc12 (stereo not given) | > 100 µM | > 100 µM | > 100 µM | > 100 µM | > 100 µM | > 100 µM | – | > 100 µM | > 100 µM | – | – | – | – | – | – | – | – | – | – | –
NC(=O)c1ccc(NC(=O)c2oc3ccccc3c2-c2cnn(-c3ccccc3)c2)cc1 | > 100 µM | > 85.2 µM | – | > 100 µM | > 100 µM | – | – | > 100 µM | > 100 µM | 5.41 µM | – | 5.42 µM | 5.79 µM | – | 1.69 µM | 6.46 µM | – | 60.8 µM | > 100 µM | > 100 µM
C/C(=N\n1c(N)c(C#N)c(-c2ccc(Cl)cc2)c(C#N)c1=O)c1cccnc1 | > 100 µM | > 100 µM | > 100 µM | > 100 µM | > 100 µM | > 100 µM | > 100 µM | – | > 100 µM | > 100 µM | > 100 µM | > 100 µM | > 100 µM | > 100 µM | – | 34.8 µM | > 100 µM | – | > 100 µM | > 100 µM
CN(C)/C(=N/C(=O)Nc1ccccc1)SCc1ccccc1 | > 100 µM | > 100 µM | – | > 100 µM | > 100 µM | > 100 µM | > 100 µM | > 100 µM | > 100 µM | – | – | – | – | – | – | – | – | – | – | –
CCOc1ccc(N2C(N)=NC(N)=NC2(C)C)cc1 | > 100 µM | > 100 µM | > 100 µM | > 100 µM | > 100 µM | – | > 100 µM | – | > 100 µM | 44.9 µM | 34.6 µM | 36.6 µM | 49.3 µM | – | > 100 µM | > 100 µM | 69.9 µM | – | 36 µM | 52.7 µM
O=C1CCCC2COc3ccc(O)c1c32 (stereo not given) | > 100 µM | > 100 µM | – | > 100 µM | > 100 µM | > 100 µM | > 100 µM | > 100 µM | > 100 µM | – | – | – | – | – | – | > 100 µM | – | – | – | –
O=C(O)c1oc2ccc([N+](=O)[O-])c3c2c1CCC3 | > 100 µM | > 100 µM | > 100 µM | > 100 µM | > 100 µM | > 100 µM | > 100 µM | – | – | – | – | – | – | – | – | > 100 µM | – | – | – | –
C=C1C(=O)O[C@H]2[C@H](OC(C)=O)[C@@H](C)CCC/C(C)=C/CC[C@]3(CO3)[C@H](O)C[C@@H]12 | 14.3 µM | 14.1 µM | – | 12.4 µM | 13.6 µM | 17.3 µM | 13.7 µM | 33.4 µM | 5.06 µM | 3.65 µM | – | 3.71 µM | 3.93 µM | 4.52 µM | 2.11 µM | 6.75 µM | 3.89 µM | 16.9 µM | 1.85 µM | 4.26 µM
